Experimental findings from patent publication US20230093099A1, “COMPOUNDS AND METHODS OF TREATING CANCERS” (CULLGEN (SHANGHAI), INC., priority 2019, published 2023) are described below.

This experiment relates to RS4;11 cells. The experiment in a line: Cell viability assay (CellTiter-Glo) in RS4;11 cells. It is filed as cell-based. To be noted: Homo sapiens, 72 h; RS4;11 cells; cell viability, 3 days, CellTiter-Glo; read-out: IC50. Put shortly: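 RS4;11 cells seeded at 5000 per well, exposed for 3 days to 8- or 12-point 3-fold serial dilutions. Viability read by CellTiter-Glo luminescence; IC50 fitted by nonlinear least-squares regression.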
On the technique in general: In ATP-based viability assays light output follows the ATP content of the culture.
As to `Cc1cnc(Nc2ccc(N3CCN(C(=O)COCCOCCOCC(=O)N[C@H](C(=O)N4C[C@H](O)C[C@H]4C(=O)NCc4ccc(-c5scnc5C)cc4)C(C)(C)C)CC3)cc2)nc1Nc1cccc(S(=O)(=O)NC(C)(C)C)c1` [JA-108, (2S,4R)-1-((S)-2-(tert-Butyl)-14-(4-(4-((4-((3-(N-(tert-butyl)sulfamoyl)phenyl)amino)-5-methylpyrimidin-2-yl)amino)phenyl)piperazin-1-yl)-4,14-dioxo-6,9,12-trioxa-3-azatetradecanoyl)-4-hydroxy-N-(4-(4-methylthiazol-5-yl)benzyl)pyrrolidine-2-carboxamide], the IC50 (as a rule, the concentration needed to halve the response being measured) was over 10 µM.
The same measure for `CS(=O)(=O)c1ccc(-c2cccc3nc(Nc4ccc(N5CCN(CC(=O)NCCCCNc6cccc7c6C(=O)N(C6CCC(=O)NC6=O)C7=O)CC5)cc4)nn23)cc1` (stereo not drawn) [JA-109, N-(4-((2-(2,6-Dioxopiperidin-3-yl)-1,3-dioxoisoindolin-4-yl)amino)butyl)-2-(4-(4-((5-(4-(methylsulfonyl)phenyl)-[1,2,4]triazolo[1,5-a]pyridin-2-yl)amino)phenyl)piperazin-1-yl)acetamide]: over 10 µM; for `CS(=O)(=O)c1ccc(-c2cccc3nc(Nc4ccc(N5CCN(CC(=O)NCCOCCNc6cccc7c6C(=O)N(C6CCC(=O)NC6=O)C7=O)CC5)cc4)nn23)cc1` (stereo not drawn) [JA-110, N-(2-(2-((2-(2,6-Dioxopiperidin-3-yl)-1,3-dioxoisoindolin-4-yl)amino)ethoxy)ethyl)-2-(4-(4-((5-(4-(methylsulfonyl)phenyl)-[1,2,4]triazolo[1,5-a]pyridin-2-yl)amino)phenyl)piperazin-1-yl)acetamide]: over 10 µM; for `CS(=O)(=O)c1ccc(-c2cccc3nc(Nc4ccc(N5CCN(CC(=O)NCCCNc6cccc7c6C(=O)N(C6CCC(=O)NC6=O)C7=O)CC5)cc4)nn23)cc1` (stereo not drawn) [JA-111, N-(3-((2-(2,6-Dioxopiperidin-3-yl)-1,3-dioxoisoindolin-4-yl)amino)propyl)-2-(4-(4-((5-(4-(methylsulfonyl)phenyl)-[1,2,4]triazolo[1,5-a]pyridin-2-yl)amino)phenyl)piperazin-1-yl)acetamide]: over 10 µM.
The same measure for `CS(=O)(=O)c1ccc(-c2cccc3nc(Nc4ccc(N5CCN(CC(=O)NCCCCCCNc6cccc7c6C(=O)N(C6CCC(=O)NC6=O)C7=O)CC5)cc4)nn23)cc1` (stereo not drawn) [JA-112, N-(6-((2-(2,6-Dioxopiperidin-3-yl)-1,3-dioxoisoindolin-4-yl)amino)hexyl)-2-(4-(4-((5-(4-(methylsulfonyl)phenyl)-[1,2,4]triazolo[1,5-a]pyridin-2-yl)amino)phenyl)piperazin-1-yl)acetamide]: over 10 µM.
As for `CS(=O)(=O)c1ccc(-c2cccc3nc(Nc4ccc(N5CCN(CC(=O)NCCCCCNc6cccc7c6C(=O)N(C6CCC(=O)NC6=O)C7=O)CC5)cc4)nn23)cc1` (stereo not drawn) [JA-113, N-(5-((2-(2,6-Dioxopiperidin-3-yl)-1,3-dioxoisoindolin-4-yl)amino)pentyl)-2-(4-(4-((5-(4-(methylsulfonyl)phenyl)-[1,2,4]triazolo[1,5-a]pyridin-2-yl)amino)phenyl)piperazin-1-yl)acetamide], the figure is over 10 µM.
Consider `CS(=O)(=O)c1ccc(-c2cccc3nc(Nc4ccc(N5CCN(CC(=O)NCCOCCOCCOCCOCCNc6cccc7c6C(=O)N(C6CCC(=O)NC6=O)C7=O)CC5)cc4)nn23)cc1` (stereo not drawn) [JA-114, N-(14-((2-(2,6-Dioxopiperidin-3-yl)-1,3-dioxoisoindolin-4-yl)amino)-3,6,9,12-tetraoxatetradecyl)-2-(4-(4-((5-(4-(methylsulfonyl)phenyl)-[1,2,4]triazolo[1,5-a]pyridin-2-yl)amino)phenyl)piperazin-1-yl)acetamide], for which the IC50 was over 10 µM.
For `CS(=O)(=O)c1ccc(-c2cccc3nc(Nc4ccc(N5CCN(CC(=O)NCCOCCOCCNc6cccc7c6C(=O)N(C6CCC(=O)NC6=O)C7=O)CC5)cc4)nn23)cc1` (stereo not drawn) [JA-115, N-(2-(2-(2-((2-(2,6-Dioxopiperidin-3-yl)-1,3-dioxoisoindolin-4-yl)amino)ethoxy)ethoxy)ethyl)-2-(4-(4-((5-(4-(methylsulfonyl)phenyl)-[1,2,4]triazolo[1,5-a]pyridin-2-yl)amino)phenyl)piperazin-1-yl)acetamide], the IC50 turned out to be 2.14 µM.
The same measure for `CS(=O)(=O)c1ccc(-c2cccc3nc(Nc4ccc(N5CCN(CC(=O)NCCCCCCCNc6cccc7c6C(=O)N(C6CCC(=O)NC6=O)C7=O)CC5)cc4)nn23)cc1` (stereo not drawn) [JA-116, N-(7-((2-(2,6-Dioxopiperidin-3-yl)-1,3-dioxoisoindolin-4-yl)amino)heptyl)-2-(4-(4-((5-(4-(methylsulfonyl)phenyl)-[1,2,4]triazolo[1,5-a]pyridin-2-yl)amino)phenyl)piperazin-1-yl)acetamide]: over 10 µM.
The same measure for `CS(=O)(=O)c1ccc(-c2cccc3nc(Nc4ccc(N5CCN(CC(=O)NCCNc6cccc7c6C(=O)N(C6CCC(=O)NC6=O)C7=O)CC5)cc4)nn23)cc1` (stereo not drawn) [JA-117, N-(2-((2-(2,6-Dioxopiperidin-3-yl)-1,3-dioxoisoindolin-4-yl)amino)ethyl)-2-(4-(4-((5-(4-(methylsulfonyl)phenyl)-[1,2,4]triazolo[1,5-a]pyridin-2-yl)amino)phenyl)piperazin-1-yl)acetamide]: 1.44 µM; for `CS(=O)(=O)c1ccc(-c2cccc3nc(Nc4ccc(N5CCN(CC(=O)NCCCCCCCCNc6cccc7c6C(=O)N(C6CCC(=O)NC6=O)C7=O)CC5)cc4)nn23)cc1` (stereo not drawn) [JA-118, N-(8-((2-(2,6-Dioxopiperidin-3-yl)-1,3-dioxoisoindolin-4-yl)amino)octyl)-2-(4-(4-((5-(4-(methylsulfonyl)phenyl)-[1,2,4]triazolo[1,5-a]pyridin-2-yl)amino)phenyl)piperazin-1-yl)acetamide]: over 10 µM; for `Cc1ncsc1-c1ccc(CNC(=O)[C@@H]2C[C@@H](O)CN2C(=O)[C@@H](NC(=O)CCNC(=O)CN2CCN(c3ccc(Nc4nc5cccc(-c6ccc(S(C)(=O)=O)cc6)n5n4)cc3)CC2)C(C)(C)C)cc1` [JA-119, (2S,4R)-1-((S)-3,3-Dimethyl-2-(3-(2-(4-(4-((5-(4-(methylsulfonyl)phenyl)-[1,2,4]triazolo[1,5-a]pyridin-2-yl)amino)phenyl)piperazin-1-yl)acetamido)propanamido)butanoyl)-4-hydroxy-N-(4-(4-methylthiazol-5-yl)benzyl)pyrrolidine-2-carboxamide]: over 10 µM.
On to `Cc1ncsc1-c1ccc(CNC(=O)[C@@H]2C[C@@H](O)CN2C(=O)[C@@H](NC(=O)CCCCCCCCCNC(=O)CN2CCN(c3ccc(Nc4nc5cccc(-c6ccc(S(C)(=O)=O)cc6)n5n4)cc3)CC2)C(C)(C)C)cc1` [JA-120, (2S,4R)-1-((S)-3,3-Dimethyl-2-(10-(2-(4-(4-((5-(4-(methylsulfonyl)phenyl)-[1,2,4]triazolo[1,5-a]pyridin-2-yl)amino)phenyl)piperazin-1-yl)acetamido)decanamido)butanoyl)-4-hydroxy-N-(4-(4-methylthiazol-5-yl)benzyl)pyrrolidine-2-carboxamide], for which the IC50 is over 10 µM.
For the compound `Cc1ncsc1-c1ccc(CNC(=O)[C@@H]2C[C@@H](O)CN2C(=O)[C@@H](NC(=O)CCCCCCCCNC(=O)CN2CCN(c3ccc(Nc4nc5cccc(-c6ccc(S(C)(=O)=O)cc6)n5n4)cc3)CC2)C(C)(C)C)cc1` [JA-121, (2S,4R)-1-((S)-3,3-Dimethyl-2-(9-(2-(4-(4-((5-(4-(methylsulfonyl)phenyl)-[1,2,4]triazolo[1,5-a]pyridin-2-yl)amino)phenyl)piperazin-1-yl)acetamido)nonanamido)butanoyl)-4-hydroxy-N-(4-(4-methylthiazol-5-yl)benzyl)pyrrolidine-2-carboxamide], the IC50 was over 10 µM.
For `Cc1ncsc1-c1ccc(CNC(=O)[C@@H]2C[C@@H](O)CN2C(=O)[C@@H](NC(=O)CCCCCNC(=O)CN2CCN(c3ccc(Nc4nc5cccc(-c6ccc(S(C)(=O)=O)cc6)n5n4)cc3)CC2)C(C)(C)C)cc1` [JA-122, (2S,4R)-1-((S)-3,3-Dimethyl-2-(6-(2-(4-(4-((5-(4-(methylsulfonyl)phenyl)-[1,2,4]triazolo[1,5-a]pyridin-2-yl)amino)phenyl)piperazin-1-yl)acetamido)hexanamido)butanoyl)-4-hydroxy-N-(4-(4-methylthiazol-5-yl)benzyl)pyrrolidine-2-carboxamide], the IC50 was over 10 µM.
As for `Cc1ncsc1-c1ccc(CNC(=O)[C@@H]2C[C@@H](O)CN2C(=O)[C@@H](NC(=O)CCCCCCNC(=O)CN2CCN(c3ccc(Nc4nc5cccc(-c6ccc(S(C)(=O)=O)cc6)n5n4)cc3)CC2)C(C)(C)C)cc1` [JA-123, (2S,4R)-1-((S)-3,3-Dimethyl-2-(7-(2-(4-(4-((5-(4-(methylsulfonyl)phenyl)-[1,2,4]triazolo[1,5-a]pyridin-2-yl)amino)phenyl)piperazin-1-yl)acetamido)heptanamido)butanoyl)-4-hydroxy-N-(4-(4-methylthiazol-5-yl)benzyl)pyrrolidine-2-carboxamide], the figure is over 10 µM; as for `Cc1ncsc1-c1ccc(CNC(=O)[C@@H]2C[C@@H](O)CN2C(=O)[C@@H](NC(=O)CCCCCCCNC(=O)CN2CCN(c3ccc(Nc4nc5cccc(-c6ccc(S(C)(=O)=O)cc6)n5n4)cc3)CC2)C(C)(C)C)cc1` [JA-124, (2S,4R)-1-((S)-3,3-Dimethyl-2-(8-(2-(4-(4-((5-(4-(methylsulfonyl)phenyl)-[1,2,4]triazolo[1,5-a]pyridin-2-yl)amino)phenyl)piperazin-1-yl)acetamido)octanamido)butanoyl)-4-hydroxy-N-(4-(4-methylthiazol-5-yl)benzyl)pyrrolidine-2-carboxamide], over 10 µM; as for `Cc1ncsc1-c1ccc(CNC(=O)[C@@H]2C[C@@H](O)CN2C(=O)[C@@H](NC(=O)CCCNC(=O)CN2CCN(c3ccc(Nc4nc5cccc(-c6ccc(S(C)(=O)=O)cc6)n5n4)cc3)CC2)C(C)(C)C)cc1` [JA-125, (2S,4R)-1-((S)-3,3-Dimethyl-2-(4-(2-(4-(4-((5-(4-(methylsulfonyl)phenyl)-[1,2,4]triazolo[1,5-a]pyridin-2-yl)amino)phenyl)piperazin-1-yl)acetamido)butanamido)butanoyl)-4-hydroxy-N-(4-(4-methylthiazol-5-yl)benzyl)pyrrolidine-2-carboxamide], over 10 µM.
